Measured values from the NIST ThermoML archive (doi:10.1016/j.jct.2019.06.029).
Numbers after ± are expanded uncertainties.

Assay: wn = mass fraction of the nth substance listed
Details: 100 kPa, Liquid; for viscosity: Falling or rolling sphere viscometry; for speed of sound: Frequency=3 MHz, Single path-length method; for mass density: Vibrating tube method

CCCCCC[n+]1ccc(C)cc1.[Br-] [1-hexyl-4-methylpyridinium bromide] + O
Details | mass density, w1 = 0.01 [kg/m3] | mass density, w1 = 0.015 [kg/m3] | mass density, w1 = 0.02 [kg/m3] | speed of sound, w1 = 0.01 [m/s] | speed of sound, w1 = 0.015 [m/s] | speed of sound, w1 = 0.02 [m/s] | viscosity, w1 = 0.01 [mPa·s] | viscosity, w1 = 0.015 [mPa·s] | viscosity, w1 = 0.02 [mPa·s]
288.15 K | 1000.9 ± 0.63 | 1001.79 ± 0.62 | 1002.56 ± 0.62 | 1473.1 ± 2.1 | 1476.5 ± 2.1 | 1479.6 ± 2.1 | 1.172 ± 0.048 | 1.183 ± 0.048 | 1.195 ± 0.049
293.15 K | 999.956 ± 0.62 | 1000.82 ± 0.63 | 1001.8 ± 0.62 | 1488.7 ± 2.1 | 1491.6 ± 2.1 | 1493.8 ± 2.1 | 1.028 ± 0.042 | 1.039 ± 0.042 | 1.05 ± 0.043
298.15 K | 998.796 ± 0.62 | 999.636 ± 0.62 | 1000.38 ± 0.62 | 1502.2 ± 2.1 | 1504.9 ± 2.1 | 1507.5 ± 2 | 0.913 ± 0.037 | 0.924 ± 0.038 | 0.934 ± 0.038
303.15 K | 997.389 ± 0.62 | 998.196 ± 0.62 | 998.926 ± 0.61 | 1514 ± 2.1 | 1516.4 ± 2.1 | 1518.9 ± 2 | 0.817 ± 0.033 | 0.824 ± 0.034 | 0.834 ± 0.034
308.15 K | 995.718 ± 0.62 | 996.546 ± 0.62 | 997.238 ± 0.62 | 1524 ± 2 | 1526.2 ± 2.1 | 1528.6 ± 2.1 | 0.738 ± 0.03 | 0.746 ± 0.03 | 0.753 ± 0.031

O [water] + CCCCCCCC[n+]1ccc(C)cc1.[Br-]
w2 = 0
Details | viscosity [mPa·s]
288.15 K | 1.136 ± 0.046
293.15 K | 1.001 ± 0.041
298.15 K | 0.89 ± 0.036
303.15 K | 0.797 ± 0.032
308.15 K | 0.718 ± 0.029

CCCC[n+]1ccc(C)cc1.[Br-] [1-butyl-4-methylpyridinium bromide] + O
Details | mass density, w1 = 0.01 [kg/m3] | mass density, w1 = 0.015 [kg/m3] | mass density, w1 = 0.02 [kg/m3] | speed of sound, w1 = 0.01 [m/s] | speed of sound, w1 = 0.015 [m/s] | speed of sound, w1 = 0.02 [m/s] | viscosity, w1 = 0.01 [mPa·s] | viscosity, w1 = 0.015 [mPa·s] | viscosity, w1 = 0.02 [mPa·s]
288.15 K | 1001.16 ± 0.64 | 1002.26 ± 0.64 | 1003.42 ± 0.64 | 1472.7 ± 2.1 | 1475.5 ± 2.1 | 1478 ± 2.1 | 1.165 ± 0.047 | 1.176 ± 0.048 | 1.195 ± 0.049
293.15 K | 1000.23 ± 0.64 | 1001.31 ± 0.64 | 1002.47 ± 0.64 | 1488.2 ± 2.1 | 1490.8 ± 2.1 | 1493.3 ± 2 | 1.024 ± 0.042 | 1.037 ± 0.042 | 1.044 ± 0.043
298.15 K | 999.051 ± 0.63 | 1000.13 ± 0.64 | 1001.26 ± 0.64 | 1501.9 ± 2.1 | 1504.1 ± 2.1 | 1506.5 ± 2 | 0.907 ± 0.037 | 0.919 ± 0.037 | 0.926 ± 0.038
303.15 K | 997.647 ± 0.63 | 998.68 ± 0.64 | 999.765 ± 0.64 | 1513.7 ± 2 | 1515.7 ± 2 | 1517 ± 2 | 0.813 ± 0.033 | 0.824 ± 0.034 | 0.833 ± 0.034
308.15 K | 996.019 ± 0.63 | 996.958 ± 0.64 | 998.102 ± 0.64 | 1523.9 ± 2 | 1525.8 ± 2 | 1527.7 ± 2 | 0.734 ± 0.03 | 0.745 ± 0.03 | 0.75 ± 0.031

CCCCCCCC[n+]1ccc(C)cc1.[Br-] [1-octyl-4-methylpyridinium bromide] + O
Details | mass density, w1 = 0.01 [kg/m3] | mass density, w1 = 0.015 [kg/m3] | mass density, w1 = 0.02 [kg/m3] | speed of sound, w1 = 0.01 [m/s] | speed of sound, w1 = 0.015 [m/s] | speed of sound, w1 = 0.02 [m/s] | viscosity, w1 = 0.01 [mPa·s] | viscosity, w1 = 0.015 [mPa·s] | viscosity, w1 = 0.02 [mPa·s]
288.15 K | 1000.54 ± 0.62 | 1001.29 ± 0.62 | 1002.09 ± 0.62 | 1473.8 ± 2.1 | 1477 ± 2.1 | 1480.5 ± 2.1 | 1.179 ± 0.048 | 1.196 ± 0.049 | 1.217 ± 0.05
293.15 K | 999.566 ± 0.62 | 1000.32 ± 0.62 | 1001.1 ± 0.62 | 1489.1 ± 2.1 | 1492.2 ± 2.1 | 1495.3 ± 2.1 | 1.031 ± 0.042 | 1.046 ± 0.043 | 1.063 ± 0.044
298.15 K | 998.379 ± 0.62 | 999.123 ± 0.62 | 999.874 ± 0.62 | 1502.6 ± 2.1 | 1505.3 ± 2.1 | 1508.2 ± 2.1 | 0.915 ± 0.037 | 0.929 ± 0.038 | 0.941 ± 0.038
303.15 K | 996.945 ± 0.62 | 997.706 ± 0.62 | 998.407 ± 0.61 | 1514.5 ± 2.1 | 1516.7 ± 2.1 | 1519.5 ± 2.1 | 0.817 ± 0.033 | 0.833 ± 0.034 | 0.844 ± 0.034
308.15 K | 995.3 ± 0.62 | 996.048 ± 0.62 | 996.742 ± 0.62 | 1524.5 ± 2.1 | 1526.4 ± 2.1 | 1528.8 ± 2.1 | 0.737 ± 0.03 | 0.749 ± 0.031 | 0.76 ± 0.031

O [water] + CCCC[n+]1ccc(C)cc1.[Br-]
w2 = 0
Details | viscosity [mPa·s]
288.15 K | 1.136 ± 0.046
293.15 K | 1.001 ± 0.041
298.15 K | 0.89 ± 0.036
303.15 K | 0.797 ± 0.032
308.15 K | 0.718 ± 0.029

O [water] + CCCCCC[n+]1ccc(C)cc1.[Br-]
w2 = 0
Details | viscosity [mPa·s]
288.15 K | 1.136 ± 0.046
293.15 K | 1.001 ± 0.041
298.15 K | 0.89 ± 0.036
303.15 K | 0.797 ± 0.032
308.15 K | 0.718 ± 0.029
